The structures appear in SMILES notation. Where two headings read alike, the source gives them in different places.

The values that follow come from patent publication US10179115B2, “Methods for treating malaria using potassium channel inhibitors” (THE CHILDREN'S MEDICAL CENTER CORPORATION, priority 2015, dated 2019).

Series [1] relates to P. falciparum 3D7. In words: in vitro growth inhibition of P. falciparum 3D7 over one asexual cycle. To be noted: Plasmodium falciparum. In kind it is cell-based.
Description: This nonlinear regression curve is representative of seven assays, each performed in triplicate.
The next series deals with P. falciparum 7G8. In words: in vitro growth inhibition of P. falciparum 7G8. In kind it is cell-based. The following applies: Plasmodium falciparum.
For a further series, the system named is P. falciparum W2mef. In words: microbe, parasite or virus in culture. In kind it is cell-based. To be noted: Plasmodium falciparum; for IC50: read-out: IC50 (mean ± 95% confidence interval).
The subject of a further series is P. knowlesi H1. In words: in vitro growth inhibition of P. knowlesi H1 cultured in rhesus erythrocytes. In kind it is cell-based. To be noted: Plasmodium knowlesi, Erythrocyte, in Macaca mulatta. An excerpt:
(§1) To identify a relationship between senicapoc activity and human erythrocytes, P. knowlesi H1 cultured in rhesus erythrocytes and P. knowlesi YH-1 adapted for culture in human erythrocytes were each treated with senicapoc. There was no difference between the senicapoc IC50s for H1 and YH-1 (P=0.14) (Table 1). Senicapoc was similarly effective against parasitized human and rhesus erythrocytes.

Another series has as its system P. knowlesi YH-1. As to the kind of experiment: in vitro growth inhibition of P. knowlesi YH-1 adapted for culture in human erythrocytes. It counts as cell-based. The following applies: Plasmodium knowlesi, Erythrocyte.
Description: as §1

A further series relates to human Plasmodium strains. In words: in vitro growth inhibition, all human Plasmodium strains tested. It counts as cell-based.
For series [2], the system named is P. falciparum 3D7. As to the kind of experiment: growth inhibition through the 48-hour asexual blood stage by microscopy and flow cytometry. In kind it is cell-based, Plasmodium falciparum. The following applies: P<0.008.
Description: Parasitemia was determined by flow cytometry and confirmed with microscopy (not shown). […] Data presented are representative of three replicates.
Mean fluorescence intensity (WI), determined by flow cytometry, is shown as a measure of parasite viability. […] The data point for “No drug” at 48 h was gated for schizonts only (20% of infected cells) to eliminate signal from reinvaded ring-stage parasites. Data for other time points were not gated, as schizonts represented 5% of infected cells.
To determine senicapoc's activity through the 48-hour asexual blood stage of the parasite, growth inhibition of P. falciparum 3D7 was characterized throughout the cycle by microscopy and flow cytometry.
The next series deals with P. yoelii 17X-NL. As to the kind of experiment: in vivo efficacy against blood-stage parasites in infected C57BL/6 mice. How it is done: C57BL/6 mice infected with P. yoelii 17X-NL were treated by gavage with vehicle or senicapoc 400 or 800 mg/kg daily from days 2 to 10 post-infection (highlighted area) to mimic a preventive therapy.
FIG. 7 is a line graph showing senicapoc suppressed parasite growth in an in vivo murine model following established infection. C57BL/6 mice infected with P. yoelii 17X-NL were treated with vehicle or senicapoc 400 mg/kg twice daily from day 8 to day 15 postinfection (highlighted area) to mimic treatment of an active infection.
To establish in vivo efficacy against blood-stage parasites, C57BL/6 mice infected with P. yoelii 17X-NL (nonlethal strain) were treated with vehicle or senicapoc. […] Parasitemia increased after the drug was stopped (FIG. 6).

The next series has as its system P. yoelii. In kind it is in vivo. The following applies: IK-1-/- mice, 400 mg/kg twice daily, days 8 to 15.
The conditions of series [3]: patients with sickle cell disease; cited from earlier work.
The conditions of series [4]: primates, daily doses of 1,000 mg/kg for 9 months; cited from earlier work.
For series [5] the following is noted: canines; cited from earlier work.
For series [6] the following is noted: cited from earlier work.
For series [7] the following is noted: patients with SCD; cited from earlier work.
The conditions of series [8]: human and animal studies for SCD; cited from earlier work.
Setting [9] is: P. falciparum 3D7, read-out: IC50 (mean ± 95% confidence interval).
The mark [10] stands for this setting: P. falciparum 7G8, Res CQ, read-out: IC50 (mean ± 95% confidence interval).
The mark [11] stands for this setting: read-out: IC90 (mean ± 95% confidence interval).
Setting [12] is: read-out: IC50 (mean ± 95% confidence interval).

Broadly, the IC50 is the concentration at which inhibition is half-maximal. As to `CCN(CC)CCCC(C)Nc1ccnc2cc(Cl)ccc12` (stereo not drawn) [CQ, chloroquine], the IC50 was found to be 0.0156 ± 0.00331 µM in the series with P. falciparum 3D7 [1] (3D7, read-out: IC50 (mean ± 95% confidence interval)); 0.0979 ± 0.0204 µM in the series with P. falciparum 7G8 (7G8, read-out: IC50 (mean ± 95% confidence interval)); 0.316 ± 0.135 µM in the series with P. falciparum W2mef.
Regarding `C[C@H]1[C@@H](O)O[C@@H]2O[C@@]3(C)CC[C@H]4[C@H](C)CC[C@@H]1[C@@]24OO3` [DHA, dihydroartemisinin], the IC50 was determined as 0.00273 ± 0.00155 µM in the series on P. falciparum 3D7 [1] (setting [9]), 0.00165 ± 0.00124 µM in the series on P. falciparum 7G8 (setting [10]) and 0.00516 ± 0.00428 µM in the series with P. falciparum W2mef.
On the same counts, the results for `OC(c1cc(C(F)(F)F)nc2c(C(F)(F)F)cccc12)C1CCCCN1` (stereo not drawn) [MQ, mefloquine] are 0.0101 ± 0.00783 µM, 0.00363 ± 0.00058 µM and 0.0267 ± 0.0155 µM.
One may read the IC90 as the concentration needed for an effect of 90%. As to `NC(=O)C(c1ccccc1)(c1ccc(F)cc1)c1ccc(F)cc1` [senicapoc, 2,2-bis(4-fluorophenyl)-2-phenylacetamide], the IC50 came to 6.74 ± 0.25 µM with P. falciparum 3D7 [1] (setting [9]); 6.7 µM in the series on P. falciparum 3D7 [1] (blood-stage P. falciparum 3D7, FIG. 1, read-out: IC50); 10.9 ± 2.3 µM with P. falciparum 7G8 (setting [10]); 9.24 ± 3.13 µM in the series on P. falciparum W2mef; 17.5 ± 6.74 µM in the series with P. knowlesi H1 (setting [12]); 11 ± 1.38 µM in the series on P. knowlesi YH-1 (setting [12]). Moreover, the IC90 in the series on P. falciparum 3D7 [1] (P. falciparum 3D7, read-out: IC90 (mean ± 95% confidence interval)) worked out at 10.2 ± 2.07 µM; in the series with P. falciparum 7G8 (P. falciparum 7G8, Res CQ, read-out: IC90 (mean ± 95% confidence interval)), 22.3 ± 9.52 µM; in the series with P. falciparum W2mef (setting [11]), 12.3 ± 1.82 µM; with P. knowlesi H1 (setting [11]) it was 31.4 ± 11.8 µM; in the series on P. knowlesi YH-1 (setting [11]), 37.4 ± 1.19 µM. The “IC90 higher than the IC50” value in the series with human Plasmodium strains is under 2 fold. Also, in the series with P. falciparum 3D7 [2] (at 36 h, treated cultures), the “Nucleic acid content measured by mean fluorescence intensity (MFI)” value is listed as “weaker”. The “Parasitemia measured by flow cytometry” value with P. falciparum 3D7 [2] (by 48 h postinvasion, treated cultures compared to control) is “reduced”. In addition, the parasitemia in the series with P. yoelii 17X-NL (prophylaxis on postinoculation days 2 to 10, by day 10, vehicle 12%, P=0.04) is on record as 4.3%; with P. yoelii 17X-NL (treatment 400 mg/kg twice daily on postinoculation days 8 to 15, beyond day 13, not statistically significant (P=0.058)) it was “lower parasitemia”. Further, in the series on P. yoelii, the “activity against P. yoelii” value is reported as “active”. In addition, the “peak concentrations achieved in human trials” value in series [3] is 337 nM. For the same compound, the tolerability result in series [4] and in series [8] was “well tolerated” each time. The “serum concentrations at which cardiotoxicity developed” value in series [5] is on record as “exceeded 18 M”. Besides, the protein binding entry in [6] is “highly protein bound”. In addition, the “frequency of vasoocclusive pain episodes” value in [7] is given as “failed to modify”. In addition, the physiological disease markers entry in series [7] is reported as “improved”.
